Measured values reported in paper PMC4201456, “Cytoxicity and Apoptotic Mechanism of Ruthenium(II) Amino Acid Complexes in Sarcoma-180 Tumor Cells” (PLoS ONE, 2014).

Assays:
Assay type in all cases: cell-based, murine
S180 cells = assay: Cell cycle analysis by PI flow cytometry
Experimental: The S180 cells were treated with complex 2 (40 µM and 60 µM) for 24 h and 48 h. Briefly, 5.0×10^5 cells were harvested by centrifugation, washed with phosphate-buffered saline (PBS), fixed with 70% (v/v) cold ethanol and stored overnight at −20°C. The fixed cells were washed with PBS and incubated with propidium iodide (PI; Sigma-Aldrich) containing 0.05% RNase. The samples were incubated at 4°C in the dark and analyzed by flow cytometry (FACS Calibur, BD Biosciences). The percentage of cells in the G0/G1, S, G2/M and sub-G1 phases was analyzed using ModFit software.

S180 tumor cells = assay: Annexin V-FITC/PI double staining, flow cytometry
Experimental: The cell death of S180 tumor cells was examined using the Annexin V-FITC Apoptosis Detection Kit (BD Biosciences) according to the manufacturer's instructions. S180 cells were treated with complex 2 (40 µM and 60 µM) for 24 h and 48 h. Briefly, 5.0×10^5 cells were harvested and washed with PBS. The cells were re-suspended in 400 µL of binding buffer. Next, 5 µL of Annexin V-FITC and 1 µL of PI were added. Flow cytometric analysis was performed immediately after supravital staining. Data acquisition and analysis were performed on a flow cytometer (FACSCalibur, BD Biosciences) using Cell Quest software. The criteria for positivity in cells in early stages of apoptosis were Annexin V-positive and PI-negative, whereas the criteria for cells in the late stages of apoptosis were both Annexin V-positive and PI-positive.

caspase-3 = assay: Caspase activity colorimetric assay (DEVD-pNA); settings: S180 cells, 24 h, control 100%
Experimental: (§1) Direct measurement of the activity of caspases 3, 8, and 9 were performed using the ApoTarget Caspase 3, 8, and 9 Protease Assay (Invitrogen) according to the manufacturer's recommendations. After treatment with complex 2 (40 µM and 60 µM) for 24 h, the cells were lysed with chilled cell lysis buffer. The protein concentration was then measured using the BSA Protein Assay Kit (BioRad). An aliquot of the protein extract (75 µg) was mixed with 50 µL of 2X reaction buffer supplemented with 10 mM DTT and the substrates of DEVD-pNA (caspase-3), IETD-pNA (caspase-8), or LEHD-pNA (caspase-9). The mixtures were then incubated for 2 h at 37°C. Subsequently, the formation of p-nitroanilide in the samples was measured using an ELISA microplate reader at 405 nm. The increases in the activities of caspase-3, caspase-8, and caspase-9 were determined by comparing the results with the control.

caspase-8 = assay: Caspase activity colorimetric assay (IETD-pNA); settings: S180 cells, 40 µM, 24 h; control 100%
Experimental: as §1

caspase-9 = assay: Caspase activity colorimetric assay (LEHD-pNA); settings: S180 cells, 40 µM, 24 h; control 100%
Experimental: as §1

bax = assay: Real-time RT-PCR gene expression, bax; settings: S180 cells, 40 µM, 6 h; normalized to β-actin
Experimental: (§2) The S180 cells were treated with 40 µM complex 2 for 6 h. Total RNA was extracted with Trizol reagent (Sigma-Aldrich, USA) following the manufacturer's protocol. Total RNA (2.0 µg) was used to produce complementary DNA (cDNA) with random primers (Applied Biosystems, USA) in a 20 µL reaction mixture according to the manufacturer's protocol.
(§3) Real-time PCR was carried out using a Line Gene K (Bioer Technology) instrument. Real-time PCR reactions were carried out in a 20 µL reaction mixture, including 2 µL of cDNA, 10 µL of SYBR Green PCR Master Mix (LGC Biotechnology, UK), and 2.0 µL of 400 nM forward and reverse primers. The PCR program was initiated at 95°C for 15 min followed by 40 cycles of 95°C for 15 s, 55°C for 15 s, and 72°C for 30 s. The data were analyzed according to the comparative Ct method and were normalized to the β-actin reference gene expression in each sample.

caspase 9 = assay: Real-time RT-PCR gene expression, caspase 9; settings: S180 cells, 40 µM, 6 h; normalized to β-actin
Experimental: as §2, §3

Bak protein = assay: Western blot analysis of Bak protein; settings: S180 cells, 60 µM, 24 h; normalized to β-actin; control 5.08
Experimental: The S180 cells were treated with 40 µM and 60 µM complex 2 for 24 h. Untreated cells maintained in media only were used as the control. After treatment, the cells were washed with PBS and lysed with lysis buffer (Invitrogen). The samples were stored at −20°C until further analysis. The protein concentrations of the resulting lysates were determined using the Bradford assay. A total of 70 µg of protein extract was mixed with Laemmli loading buffer and subjected to 12% SDS-PAGE at 100 V for 2 h, followed by electroblotting to nitrocellulose membranes (0.45 µm) (Bio-Rad Laboratories, Inc.) at 400 mA for 1.5 h. […] The membranes were washed in TBS-T, incubated with an HRP-conjugated IgG secondary antibody (Santa Cruz Biotechnology Inc., 1∶1000 dilution) for 1 h, and washed with TBS-T. The immunoreactive bands were detected using an ECL western blotting substrate (Super Signal West Pico Substrate, Thermo Scientific), and the ECL signals were captured using a CCD camera (ImageQuant LAS 4000 mini; GE Healthcare). The optical density of the target protein bands was measured using IMAGE J software downloaded from the NIH website (http://rsb.info.nih.gov.ij/) to compare the protein levels. […]

F[P-](F)(F)(F)(F)F.NCC(=O)[O-].[Ru+2].c1ccc(-c2ccccn2)nc1.c1ccc(P(CCCCP(c2ccccc2)c2ccccc2)c2ccccc2)cc1 [Complex 2, [Ru(gly)(bipy)(dppb)]PF6] was tested, and the “fraction of G0/G1 cells” value (S180 cells; 40 µM, 24 h, control 23.6%) was 61.07%, the “fraction of G0/G1 cells” value (S180 cells; 40 µM, 48 h, control 41.55%) was 59.94% and the “fraction of G0/G1 cells” value (S180 cells; 60 µM, 24 h, control 23.6%) was 56.09%. The “fraction of G0/G1 cells” value (S180 cells; 60 µM, 48 h, control 41.55%) was 59.86%, the “cells in early apoptosis (Annexin V+ and PI-)” value (shortened to “cells in early apoptosis”) (S180 tumor cells; 40 µM, 24 h) was 19.76% and the “cells in late apoptosis (Annexin V+ and PI+)” value (from here on “cells in late apoptosis”) (S180 tumor cells; 40 µM, 24 h) was 22.76%. For the same compound, the “cells in early apoptosis” value (S180 tumor cells; 40 µM, 48 h) was 42.59%, the “cells in late apoptosis” value (S180 tumor cells; 40 µM, 48 h) was 25.16% and the “cells in early apoptosis” value (S180 tumor cells; 60 µM, 24 h) was 22.48%. For the same compound, the “cells in late apoptosis” value (S180 tumor cells; 60 µM, 24 h) was 31.67%, the “cells in early apoptosis” value (S180 tumor cells; 60 µM, 48 h) was 47.48% and the “cells in late apoptosis” value (S180 tumor cells; 60 µM, 48 h) was 30.24%. The “activity of caspase-3” value (caspase-3; 40 µM) was 136.05%, the “activity of caspase-3” value (caspase-3; 60 µM) was 170.24% and the “activity of caspase-8” value (caspase-8) was 127.22%. For the same compound, the “activity of caspase-9” value (caspase-9) was 176.43%, the “expression level of the bax gene compared to untreated control” value (bax) was 2.75 fold and the “expression level of caspase 9 compared to control” value (caspase 9) was 1.83 fold. For the same compound, the “expression level of the Bak protein” value (Bak protein) was 9.40 fold.
